Experimental data from PubChem BioAssay (NCI).
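Cultured in 96-well plates, cells were exposed to test compound for 48 hours across five concentrations. Here, GI50 denotes the concentration required for 50% inhibition of growth. TGI denotes the concentration required for complete inhibition of growth.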

Experiments:
Assay in all cases: growth of human tumour cells (NCI), 48 h
A549 NSCLC = tested on: A549 NSCLC
COLO 205 colon = tested on: COLO 205 colon
HCT-116 colon = tested on: HCT-116 colon
HL-60(TB) leukemia = tested on: HL-60(TB) leukemia
K-562 leukemia = tested on: K-562 leukemia
NCI-H226 lung = tested on: NCI-H226 lung
RPMI-8226 leukemia = tested on: RPMI-8226 leukemia
SK-MEL-2 melanoma = tested on: SK-MEL-2 melanoma
UACC-257 melanoma = tested on: UACC-257 melanoma
UACC-62 melanoma = tested on: UACC-62 melanoma

Row | Structure (SMILES) | GI50 (A549 NSCLC) [µM] | TGI (A549 NSCLC) [µM] | GI50 (COLO 205 colon) [µM] | TGI (COLO 205 colon) [µM] | GI50 (HCT-116 colon) [µM] | TGI (HCT-116 colon) [µM] | GI50 (HL-60(TB) leukemia) [µM] | TGI (HL-60(TB) leukemia) [µM] | GI50 (K-562 leukemia) [µM] | TGI (K-562 leukemia) [µM] | GI50 (NCI-H226 lung) [µM] | TGI (NCI-H226 lung) [µM] | GI50 (RPMI-8226 leukemia) [µM] | TGI (RPMI-8226 leukemia) [µM] | GI50 (SK-MEL-2 melanoma) [µM] | TGI (SK-MEL-2 melanoma) [µM] | GI50 (UACC-257 melanoma) [µM] | TGI (UACC-257 melanoma) [µM] | GI50 (UACC-62 melanoma) [µM] | TGI (UACC-62 melanoma) [µM]
1 | COc1ccc(/C=C2/N=C(c3ccccc3)N(c3c(C)n(C)n(-c4ccccc4)c3=O)C2=O)cc1OC | > 100 | > 100 | > 100 | > 100 | > 100 | > 100 | > 100 | > 100 | > 100 | > 100 | > 100 | > 100 | > 100 | > 100 | > 100 | > 100 | > 100 | > 100 | > 100 | > 100
2 | CCOc1ccccc1NC(=O)C(=O)CC(=O)c1sc(Nc2nnc(-c3ccc(Cl)c(Cl)c3)o2)nc1C | – | > 100 | – | > 100 | – | > 100 | – | > 100 | – | > 100 | – | > 100 | – | > 100 | – | > 100 | – | > 100 | – | > 100
3 | OCC1OC(c2nc(C3=NCCCN3)cs2)C(O)C1O (configuration not stated) | – | > 100 | – | > 100 | – | > 100 | – | > 100 | – | > 100 | – | > 100 | – | > 100 | – | > 100 | – | > 100 | – | > 100
4 | COc1ccc(-c2nc3ccc(-c4nc5ccc(N6CCN(c7ccccc7)CC6)cc5[nH]4)cc3[nH]2)cc1OC | 2.03 | 6.73 | 0.77 | 2.81 | 0.281 | 1.11 | 1.78 | 10.2 | 0.366 | 2.92 | 14.5 | 32.6 | 0.19 | 2.3 | 2.04 | 4.07 | 2.05 | 4.4 | 1.41 | 3.63
5 | O=C(/C=C/c1cccc2ccccc12)c1ccccc1Cl | – | 55.7 | – | > 100 | – | 20.9 | – | 19.4 | – | > 100 | – | > 100 | – | 47.3 | – | 34.7 | – | 31.3 | – | 27.3
6 | COc1c(OC[C@H](O)CN2CCOCC2)ccc2c3n(c(=NC(=O)c4cccnc4C)nc12)CCN3 | 0.826 | > 50 | 0.918 | > 50 | 24.2 | > 50 | 0.0538 | > 50 | > 50 | > 50 | 15.4 | > 50 | > 50 | > 50 | > 50 | > 50 | 1.11 | > 50 | 0.33 | > 50
7 | CNCC#Cc1c(F)ccc2c1/C(=C/c1[nH]ccc1OC)C(=O)N2 | 0.129 | 2.71 | 0.113 | 0.48 | 0.0827 | 3.1 | 0.0722 | 0.26 | 0.65 | 3.61 | 0.211 | 1.36 | 0.322 | 1.47 | 0.0799 | 0.369 | 0.619 | 2.91 | 0.249 | 0.815
8 | Cc1ncc(C(=O)Nc2ccc(CN3CCN(C)CC3)c(C(F)(F)F)c2)cc1C#Cc1cnc(N)c2ccncc12 | 1.78 | 4.24 | 0.687 | 2.04 | 1.19 | 2.56 | 0.79 | 4.06 | – | 4.48 | 0.527 | 14.3 | 2.18 | 5.46 | 1.72 | 3.65 | 1.64 | 3.33 | 1.4 | 2.9
9 | CCSc1ncnc2c1ncn2C1OC(CO)C(O)C1O (configuration not stated) | 0.777 | > 60.2 | 0.777 | > 100 | 0.339 | > 100 | 0.354 | 31.1 | 3.06 | > 100 | 0.845 | > 100 | 4.5 | > 100 | 24.1 | > 100 | > 19.8 | > 100 | 1.48 | > 100
10 | Cn1cc(C2=C(c3cn(CCCCO)c4ccccc34)C(=O)NC2=O)c2ccccc21 | 7.97 | > 25 | 7.28 | > 19.5 | 7.63 | > 25 | 6.71 | 16.3 | 9.75 | > 25 | 7.55 | > 25 | 9.23 | > 25 | 7.65 | 21.6 | 19.8 | > 25 | 9.07 | > 24.1
11 | Cc1ccc(NC(=O)CC2CC2)cc1-c1ccc(C(=O)NCC2CC2)cc1 | > 25 | > 25 | > 25 | > 25 | > 25 | > 25 | > 24.2 | > 25 | > 14.1 | > 25 | > 25 | > 25 | > 25 | > 25 | > 25 | > 25 | > 25 | > 25 | > 21.7 | > 25
12 | O=C1OCC2=C1C(c1cccc(Br)c1)c1cc3c(cc1N2CCO)CCC3 (configuration not stated) | 0.133 | 5.54 | 0.111 | 0.263 | 0.0904 | 3.04 | 0.0763 | 0.444 | 0.11 | 7.9 | 0.116 | 0.761 | 0.183 | 10 | 0.231 | 8.32 | 0.0235 | 8.12 | 0.0223 | 8.18
13 | COc1cc(-n2cc(-c3ccc(F)cc3)[nH]c2=O)cc(OC)c1OC | > 100 | > 100 | > 100 | > 100 | > 100 | > 100 | > 100 | > 100 | > 100 | > 100 | > 100 | > 100 | > 100 | > 100 | > 100 | > 100 | > 100 | > 100 | > 100 | > 100
14 | O=C(Nc1nc(=S)c2c(ncn2CCOC(=O)c2ccccc2)[nH]1)c1ccccc1 | – | > 100 | – | > 100 | – | > 100 | – | > 100 | – | > 100 | – | > 100 | – | > 100 | – | > 100 | – | > 100 | – | > 100
15 | [Cl][Hg][c]1cc[c]([Hg][Cl])o1 | 21.9 | 53.5 | 1.65 | 3.26 | 6.4 | 20.7 | 2.39 | 7.03 | 1.24 | 11.8 | 21.8 | 51.8 | 1.66 | 7.34 | 2.56 | 11.3 | 7.93 | 28.8 | 3.46 | 16.2
16 | CCOC(=O)Nc1ccc(C)c(NC(=O)OCC)c1 | – | > 100 | – | > 100 | – | > 100 | – | > 100 | – | > 100 | – | > 100 | – | > 100 | – | > 100 | – | > 100 | – | > 100
17 | C[C@@H]1CC[C@@H]2[C@@H]1[C@H](OC(=O)/C=C/c1ccccc1)[C@]1(C3CCCCC3)C[C@@H](OC(=O)CO)[C@@]2(C)O1 | 4.03 | 14.1 | 3.12 | 11.1 | 1.92 | 4.13 | 2.75 | 6.43 | 3.88 | 14.6 | 2.06 | 5.56 | 2.99 | 7.49 | 4.03 | 16.1 | 5.1 | 18.7 | 3.11 | 10.1
18 | CCOC(=O)C(Cc1ccc(CCCC(=O)NCCC(=O)Nc2ccc3nc(C)sc3c2)cc1)C(=O)OCC | 59.1 | > 100 | 32.3 | > 96.4 | 45.8 | > 100 | 23.7 | 64.7 | 47.3 | > 100 | 36.1 | > 100 | 21.1 | 53.4 | 33 | > 62 | 34.7 | > 87.1 | 26.2 | > 69.5
19 | COc1cc(NS(C)(=O)=O)ccc1Nc1c2ccccc2nc2c1[nH]c1ccc(NC3OC(CO)C(O)C(O)C3O)cc12 (configuration not stated) | – | 0.235 | – | 2.76 | – | 1.43 | – | 0.282 | – | 20.3 | – | 0.201 | – | 3.85 | – | 1.36 | – | 11 | – | 1.08
20 | O=C(CSc1nc2ccccc2nc1-c1ccccc1)Nc1ccc(F)cc1 | 49.3 | > 100 | 83.3 | > 100 | 14.1 | 28.7 | 66.9 | > 100 | 30.8 | > 100 | > 100 | > 100 | 58.5 | > 100 | 73.5 | > 100 | 92.8 | > 100 | 48.5 | > 100
21 | CCN1CCC(O)(c2ccc(OC)cc2)C(C(=O)c2ccc(OC)cc2)C1 (configuration not stated) | – | 37 | – | 55.1 | – | 52.4 | – | 46.9 | – | > 100 | – | > 100 | – | 38.9 | – | 38.1 | – | 48 | – | 32.2
22 | O=C(O)Cc1cc(Cl)ccc1O | – | > 100 | – | > 100 | – | > 100 | – | > 100 | – | > 100 | – | > 100 | – | > 100 | – | > 100 | – | > 100 | – | > 100
23 | COc1cc2c3c(n(C)c(=O)c2cc1OC)-c1cc2c(cc1/C3=C\CN)OCO2 | 0.273 | 2.81 | 0.156 | – | 0.0713 | 0.437 | 0.294 | > 100 | 0.106 | – | 0.515 | 15.2 | 0.307 | 4.9 | 24.1 | > 100 | 1.44 | 20.4 | 0.0731 | –
24 | CN1C(=O)N(C)C2C1NN=c1s/c(=C\c3ccc(Cl)cc3Cl)c(=O)n12 (configuration not stated) | 0.243 | > 100 | 0.0951 | 2.58 | 0.131 | > 40.2 | 0.264 | – | 0.0473 | > 50.7 | 0.623 | > 100 | 0.364 | 16.3 | 11.7 | > 100 | 12.2 | > 100 | 0.0709 | > 65.2
25 | CCC(C)COC(=O)c1ccc(N=Cc2ccc(C=Nc3ccc(C(=O)OCC(C)CC)cc3)cc2)cc1 (configuration not stated) | – | > 100 | – | > 100 | – | > 100 | – | > 100 | – | > 100 | – | > 100 | – | > 100 | – | > 100 | – | > 100 | – | > 100
26 | Cc1c2c(C#N)nccc2c(C)c2c1c1ccccc1n2Cc1ccccc1 | – | > 100 | – | > 100 | – | > 100 | – | > 100 | – | > 100 | – | > 100 | – | > 100 | – | > 100 | – | > 100 | – | > 100
27 | CS(=O)(=O)CCNCc1nc(-c2ccc3ncnc(Nc4ccc(OCc5cccc(C(F)(F)F)c5)cc4)c3c2)cs1 | > 22 | > 25 | > 23.9 | > 25 | > 18.7 | > 25 | > 25 | > 25 | > 25 | > 25 | > 25 | > 25 | > 25 | > 25 | 8.7 | > 22.1 | > 25 | > 25 | > 25 | > 25
28 | COc1cccc2c1C(=O)c1c(O)c3c(c(O)c1C2=O)C[C@](O)(C(=O)CO)C[C@H]3O[C@@H]1C[C@@H](NC(=O)CCCCCN(C)C2(c3ccc(F)cc3)CC3CCC2C3)[C@H](O)[C@@H](C)O1 (some centres not stated) | – | – | 0.728 | 1.65 | 0.729 | 1.51 | 6.59 | 16.1 | 1.11 | 2.47 | 6.68 | 16.9 | 0.899 | 2.25 | 1.18 | 2.52 | 0.931 | 1.73 | 6.56 | 15.7
29 | COc1ccc(CC2NCCc3c2[nH]c2ccccc32)cc1 (configuration not stated) | – | > 100 | – | 40.6 | – | > 100 | – | 53.5 | – | > 100 | – | > 100 | – | > 100 | – | > 100 | – | – | – | > 100
